Results from patent US20020115594A1, “Peptide antagonists at glutamate and NMDA receptors” (priority 1993, published 2002).
Ends that are not written are not given here.

Tests used:
NMDA receptors = test: In vitro GnRH secretion by hypothalamic explants induced by NMA; assay type: cell-based, rat; conditions: 10^−6 M; explants of 50-day-old male rats; FIG. 8
Method: (§1) The hypothalamic explants of male Wistar rats were studied individually using a static incubation system described earlier (1-3, 9). The total incubation volume of each chamber (0.5 ml) was sampled and renewed every 7.5 min. Using these fractions, the radioimmunoassay of GnRH was performed as described in detail previously (1, 2). The secretion of GnRH was studied either in the absence of any secretagogue or during the 7.5-min exposure to 5.10^−5 M of veratridine, a depolarizing agent opening the Na^+ channel, or 5.10^−2 M of kainate or N-methyl-D, L-aspartate (NMA) which are agonists of distinct subtypes of glutamate receptors. All these products were bought from Sigma, St Louis, Mo. […] The secretory response of GnRH was calculated as the difference between the concentration measured immediately before and during exposure to the secretagogue.
(§2) We studied the effects of the in-vitro exposure to increasing concentrations of recombinant hIGF-I (Kabi-Pharmacia, Stockholm, Sweden) or its two subproducts, (1-3)IGF-I (Peninsula, Merseyside, England) and (4-70)IGF-I (Gropep, Adelaide, Australia). […] At that time, the serum was collected for the assay of IGF-I using a method described elsewhere (15) and testosterone was measured as well using a standard RIA (Sorin Biomedica). […] The occurrence of significant GnRH secretory pulses was determined using the pulsar program (2, 3). […]

[1] = test system: GnRH secretion by hypothalamic explants; test: In vitro GnRH secretion by hypothalamic explants induced by veratridine (static incubation, GnRH radioimmunoassay); assay type: cell-based, rat
Method: The hypothalamic explants of male Wistar rats were studied individually using a static incubation system described earlier (1-3, 9). The total incubation volume of each chamber (0.5 ml) was sampled and renewed every 7.5 min. Using these fractions, the radioimmunoassay of GnRH was performed as described in detail previously (1, 2). The secretion of GnRH was studied either in the absence of any secretagogue or during the 7.5-min exposure to 5.10^−5 M of veratridine, a depolarizing agent opening the Na^+ channel, or 5.10^−2 M of kainate or N-methyl-D, L-aspartate (NMA) which are agonists of distinct subtypes of glutamate receptors. All these products were bought from Sigma, St Louis, Mo. At 25 and 50 days, veratridine was used repeatedly at 37.5-min intervals. At 15 days, veratridine was used at 52.5-min intervals, i.e. beyond the period of refractoriness caused by the inhibitory autofeedback of GnRH(11). The secretory response of GnRH was calculated as the difference between the concentration measured immediately before and during exposure to the secretagogue.
(§3) We studied the effects of the in-vitro exposure to increasing concentrations of recombinant hIGF-I (Kabi-Pharmacia, Stockholm, Sweden) or its two subproducts, (1-3)IGF-I (Peninsula, Merseyside, England) and (4-70)IGF-I (Gropep, Adelaide, Australia). We also studied the effects of other peptides. The GnRH fragments and analogs included (1-5) GnRH (UCB, Brussels, Belgium), (2-10)GnRH (Sigma, St Louis, Mo., USA) and (1-9)GnRHa (D-TRP^6-PRO^9-N-Ethylamide GnRH) a GnRH agonist kindly provided by Dr J Rivier (The Salk Institute, California, USA). The bovine Proinsulin and its subproducts included the C-peptide of insulin and insulin itself (Novo-Nordisk, Copenhagen, Denmark). Finally, the GRF-related peptides included (1-43) rat GRP (Bachem, Bubendorf, Switzerland), (1-37) human GRF (Peninsula, Merseyside, England) and (1-29)human GRF (Kabi Pharmacia, Stockholm, Sweden). AP-5 (DL-2-amino-5-phosphonovaleric acid, Sigma), a selective antagonist at NMDA receptors and DNQX (6,7-dinitro-quinoxaline-2,3-dione, Tocris Neuramin, Buckhurst Hill, United Kingdom) a selective antagonist at kainate receptors, were also used. The different peptides or antagonists were used for 15 min, i.e. the 7.5-min fraction before and during exposure to veratridine. We also studied the effects of a single s.c. injection of IGF-I or its subproducts in 15 or 50 day-old rats. Then, the animals were sacrificed and the hypothalamic explants studied 25 min after the injection, this interval being required to obtain plasma concentrations of IGF-I sufficient to affect protein metabolism (A. Skottner, personal communication). At that time, the serum was collected for the assay of IGF-I using a method described elsewhere (15) and testosterone was measured as well using a standard RIA (Sorin Biomedica). The concentration of the studied substances resulting in 50% inhibition of the GnRH secretory response (IC50) was calculated as described earlier (3, 9) and the data were compared by covariance analysis. The occurrence of significant GnRH secretory pulses was determined using the pulsar program (2, 3).
FIG. 1. In vitro effects of IGF-I-related peptides on GnRH secretion by hypothalamic explants at 15, 25 and 50 days. GnRH secretory response to depolarizing episodes (veratridine 50 μM for 7.5 min) was studied repeatedly at intervals of 52.5 min at 15 days or 37.5 min at 25 and 50 days. Such study was performed in control conditions or in the presence of increasing concentrations of IGF-I and subproducts, (4-70)IGF-I and (1-3)IGF-I, as well as AP-5, a competitive antagonist at NMDA receptors. Each experiment was preceded and followed by a veratridine challenge in control conditions.

[2] = test system: GnRH secretion by hypothalamic explants; test: as above; assay type: cell-based, rat; remark: listed apart in the source
kainate receptors = test: In vitro GnRH secretion by hypothalamic explants induced by kainate; assay type: cell-based, rat; conditions: 10^−6 M; explants of 50-day-old male rats; FIG. 8
Method: as §1, §2

glutamate receptors = test: Displacement of tritiated glutamate from hypothalamic membrane preparations; assay type: binding; conditions: FIG. 9
Source text: Hypothalmic membrane preparations are used to study the displacement of tritiated glutamate binding in the presence of different compounds. Glutamate is able to displace the binding of the tracer at relatively low 10^−6 to 10^−8 concentrations. […] This is because the affinity of tritiated glutamate for the NMDA receptors is less than for the other subtypes of glutamate receptors.

[3] = test system: brain hypoxic-ischemic injury; conditions: reported in refs 22, 23; cited from earlier work
[4] = test system: GnRH secretion by hypothalamic explants; test: Spontaneous pulsatile secretion of GnRH from hypothalamic explants after s.c. injection; assay type: in vivo, rat; conditions: s.c. injection of 0.1 mg/kg; 50-day-old rats; data not shown
Source text: as §3, with “The different peptides or antagonists were used for 15 min, i.e. the 7.5-min fraction before and during exposure to veratridine. We also studied the effects of a single s.c. injection of IGF-I or its subproducts in 15 or 50 day-old rats. Then, the animals were sacrificed and the hypothalamic explants studied 25 min after the injection, this interval being required to obtain plasma concentrations of IGF-I sufficient to affect protein metabolism (A. Skottner, personal communication).” left out, “The concentration of the studied substances resulting in 50% inhibition of the GnRH secretory response (IC50) was calculated as described earlier (3, 9) and the data were compared by covariance analysis.” left out, “3). […]” for “3).”

[5] = test system: GnRH secretion by hypothalamic explants; test: Ex vivo veratridine-induced GnRH secretion by hypothalamic explants after in-vivo s.c. injection; set-up: species or system rat
Source text: as §3, with “3). […]” for “3).”

[6] = in vitro, explants of 50-day-old rats, FIG. 7

NC(CCCP(=O)(O)O)C(=O)O (racemic) [AP-5, DL-2-amino-5-phosphonovaleric acid, reference compound]
effect on secretion of GnRH induced by NMA (NMDA receptors): inhibitory effects
effect on veratridine-induced secretion of GnRH ([1]; in vitro, explants at 15, 25 and 50 days): dose-related suppression

CNC(CC(=O)O)C(=O)O (racemic) [NMA, N-methyl-D, L-aspartate, reference compound]
GnRH secretion induced by veratridine 5.10^−5 M ([2]; +NMA 5.10^−4 M alone, 50-day-old male rats, mean, n = 6): 98 % of controls

O=C1N=c2cc([N+](=O)[O-])c([N+](=O)[O-])cc2=NC1=O [DNQX, 6,7-dinitro-quinoxaline-2,3-dione]
effect on kainate-induced secretion of GnRH (kainate receptors): inhibitory effects

N[C@@H](CCC(=O)O)C(=O)O [Glutamate]
concentrations displacing the binding of the tracer (glutamate receptors): 10^−6 to 10^−8

(1-5)GnRH: peptide with a N-terminal glutamic acid which results from the degradation of GnRH in the hypothalamus (QHWSY; ends and bridges not checked; UniProt P01148 24-28, looked up, fragment)
displacement of tritiated glutamate binding (glutamate receptors): act as competitors of glutamate binding
effect on veratridine-induced secretion of GnRH ([1]; FIG. 6): inhibited

(1-29)GRF: human GRF subproduct retaining GH-releasing activity (YADAIFTNSYRKVLGQLSARKLLQDIMSR; Somatoliberin; UniProt P01286 32-60, looked up, fragment) [reference compound]
effect on veratridine-induced secretion of GnRH [1, 6]: does not affect

(1-37)GRF: human GRF subproduct, minor physiological form with a C-terminal glutamic acid (YADAIFTNSYRKVLGQLSARKLLQDIMSRQQGESNQE; Somatoliberin; UniProt P01286 32-68, looked up, fragment)
effect on veratridine-induced secretion of GnRH [1, 6]: dose-related inhibition

(1-43)GRF: full (1-43) sequence of rat Growth Hormone-Releasing Factor (HADAIFTSSYRRILGQLYARKLLHEIMNRQQGERNQEQRSRFN; Somatoliberin; UniProt P09916 31-73, looked up) [reference compound]
effect on veratridine-induced secretion of GnRH [1, 6]: dose-related inhibition

D-TRP^6-PRO^9-N-Ethylamide GnRH [(1-9)GnRHa, reference compound]
effect on veratridine-induced secretion of GnRH ([1]; FIG. 6): can be inhibited
IC50 ([1]; FIG. 6, read-out: IC50, inhibition of veratridine-induced GnRH secretion): 0.2 nM

IGF-I: recombinant hIGF-I (Kabi-Pharmacia)
protection against brain hypoxic-ischemic injury [3]: can protect
period for which spontaneous pulsatile secretion of GnRH is abolished [4]: ~2 h
period of suppression of the GnRH secretory response to veratridine ([5]; s.c. 0.05-0.2 mg/kg, directly related to dose, 50-day-old animals): 47.5 to 107.5 min
ex vivo effectiveness on veratridine-induced GnRH secretion at 15 and 50 days ([5]; s.c. injection, higher doses at 15 days, FIG. 3): only effective at 50 days
period of marked inhibition of in-vitro GnRH secretion in response to veratridine ([5]; single s.c. injection of 0.5 mg/kg, 50-day-old animals): up to 167.5 min
displacement of tritiated glutamate binding (glutamate receptors): act as competitors of glutamate binding
effect on GnRH secretion at very high concentrations ([1]; 10^−4 and 10^−3 M, explants at 15 days, FIG. 4): inhibition of GnRH secretion
effect on veratridine-induced secretion of GnRH ([1]; in vitro, explants at 25 and 50 days): dose-related inhibition
effect on veratridine-induced secretion of GnRH ([1]; in vitro, explants at 15 days): not affected
inhibitory effect on GnRH secretion in the presence of peptidase inhibitors ([1]; three different peptidase inhibitors, FIG. 5): can be prevented
effect on GnRH secretion from explants of 30-day-old female rats ([2]; data not shown): inhibited

insulin: bovine insulin
effect on veratridine-induced secretion of GnRH [1, 6]: no effects

B1: Proinsulin: bovine Proinsulin (protein, UniProt P01317 25-105, looked up)
pro-form: FVNQHLCGSHLVEALYLVCGERGFFYTPKARREVEGPQVGALELAGGPGAGGLEGPPQKRGIVEQCCASVCSLYQLENYCN
modifications: pro-form
effect on veratridine-induced secretion of GnRH [1, 6]: dose-related suppression
